From PMC5672791 (Journal of medicinal chemistry, 2015)
Where two headings read alike, the source gives them in different places. Each block holds one molecule with its values, some of them ahead of it. Where a SMILES comes first, the peptide text is derived from it. Bridges are numbered along the chain shown (N, C = ends). Where no end group is shown, it is not given here. [ ]: non-standard residue; d: D form. Bip = N[C@@H](Cc1ccc(-c2ccccc2)cc1)C(=O)O

Columns and labels:
[1] = target: T1, mMC4R (Mus musculus, UniProt P56450); format: cell-based
[2] = target: T2, mMC3R (Mus musculus, UniProt P33033); format: cell-based
[3] = target: T3, mMC1R (Mus musculus, UniProt Q01727); assay: cAMP based β-galactosidase reporter assay, agonist activity at mMC1R; format: cell-based
[4] = target: T2, mMC3R; conditions: cited from earlier work
[5] = target: T1, mMC4R; conditions: cited from earlier work; for Ki: read-out: mMC4R Ki, Ki=10^-pA2, previously reported values
[6] = target: mMC3R (Mus musculus) (UniProt P33033); assay: Schild analysis; conditions: cited from earlier work
[7] = target: mMC4R (Mus musculus) (UniProt P56450); assay: Schild analysis; conditions: cited from earlier work
[8] = target: mMC5R (Mus musculus, UniProt P41149); conditions: read-out: mMC5R Agonist EC50; previously reported values; cited from earlier work
[9] = target: T3, mMC1R; conditions: read-out: mMC1R Agonist EC50; previously reported values; cited from earlier work
[10] = target: T2, mMC3R; assay: cAMP based β-galactosidase reporter assay; format: cell-based; conditions: Figure 1
[11] = target: T4, mMC3R (Mus musculus, UniProt P33033); assay: Schild analysis
T4 chain: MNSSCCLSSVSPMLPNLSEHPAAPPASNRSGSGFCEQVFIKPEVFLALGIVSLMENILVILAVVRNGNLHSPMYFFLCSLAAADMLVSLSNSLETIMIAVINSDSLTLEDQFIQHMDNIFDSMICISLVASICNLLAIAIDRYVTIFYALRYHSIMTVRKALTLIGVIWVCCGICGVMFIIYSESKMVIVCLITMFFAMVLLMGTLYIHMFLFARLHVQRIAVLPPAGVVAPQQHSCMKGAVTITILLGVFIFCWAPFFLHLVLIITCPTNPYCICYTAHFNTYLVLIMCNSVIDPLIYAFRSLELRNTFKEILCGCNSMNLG

[12] = target: T5, mMC4R (Mus musculus, UniProt P56450); assay: Schild analysis
T5 chain: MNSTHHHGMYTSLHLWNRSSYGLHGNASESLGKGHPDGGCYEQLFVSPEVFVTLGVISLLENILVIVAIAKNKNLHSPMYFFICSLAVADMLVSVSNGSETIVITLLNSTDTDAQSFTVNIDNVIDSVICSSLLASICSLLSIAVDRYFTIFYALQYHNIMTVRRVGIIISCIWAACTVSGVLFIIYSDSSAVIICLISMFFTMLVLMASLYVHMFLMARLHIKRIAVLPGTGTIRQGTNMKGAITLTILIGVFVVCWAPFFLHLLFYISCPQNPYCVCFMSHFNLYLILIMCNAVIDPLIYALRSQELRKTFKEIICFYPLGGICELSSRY

T3 sequence (Q01727 whole entry): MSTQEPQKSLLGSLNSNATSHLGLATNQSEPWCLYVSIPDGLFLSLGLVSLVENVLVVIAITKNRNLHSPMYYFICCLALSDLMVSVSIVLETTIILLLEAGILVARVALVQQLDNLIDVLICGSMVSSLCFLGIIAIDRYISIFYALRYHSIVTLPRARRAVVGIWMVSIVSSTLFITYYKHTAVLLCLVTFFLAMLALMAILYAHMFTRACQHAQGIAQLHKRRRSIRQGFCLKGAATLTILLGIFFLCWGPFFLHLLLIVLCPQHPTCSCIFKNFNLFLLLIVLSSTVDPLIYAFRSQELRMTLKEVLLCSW
mMC5R, sequence (P41149 whole entry): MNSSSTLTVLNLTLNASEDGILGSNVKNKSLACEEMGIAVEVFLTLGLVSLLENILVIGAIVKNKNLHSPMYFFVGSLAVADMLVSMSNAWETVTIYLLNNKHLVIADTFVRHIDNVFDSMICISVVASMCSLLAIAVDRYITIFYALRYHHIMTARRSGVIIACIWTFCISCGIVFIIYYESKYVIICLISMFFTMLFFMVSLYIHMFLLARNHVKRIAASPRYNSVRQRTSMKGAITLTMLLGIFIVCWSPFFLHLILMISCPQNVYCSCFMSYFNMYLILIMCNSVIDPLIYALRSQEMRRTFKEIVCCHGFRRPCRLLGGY

fold increased antagonist potency at the mMC4R compared to 6 [1]: 5 fold
fold increased antagonist potency at the mMC3R compared to 6 ([2]; compared to 6): 16 fold
Molecule: C[C@@H]1NC(=O)CNC(=O)[C@H](Cc2ccccc2)NC(=O)[C@H](Cc2ccccc2)NC(=O)[C@H](CCCNC(=N)N)NC(=O)[C@@H]2CCCN2C(=O)[C@H]2CCCN2C(=O)[C@H](Cc2ccccc2)NC1=O [Peptide 21, c[Pro-Arg-Phe-Phe-Gly-Ala-Phe-DPro]]

fold decreased antagonist potency at the mMC4R compared to 6 [1]: 65 fold
no activity at the mMC3R up to (concentration) [2]: > 100 µM
fold decreased potency at the mMC1R compared to 6 [3]: 4 fold
Molecule: C[C@@H]1NC(=O)[C@H](CC(N)=O)NC(=O)[C@H](c2ccccc2)NC(=O)[C@H](Cc2ccccc2)NC(=O)[C@H](CCCNC(=N)N)NC(=O)[C@@H]2CCCN2C(=O)[C@H]2CCCN2C(=O)[C@H](Cc2ccccc2)NC1=O [Peptide 16, c[Pro-Arg-Phe-Phg-Asn-Ala-Phe-DPro]]

fold increased antagonist potency at the mMC4R compared to 6 [1]: 5 fold
Molecule: C[C@@H]1NC(=O)[C@H](CCCNC(=N)N)NC(=O)[C@H](Cc2ccccc2)NC(=O)[C@H](Cc2ccccc2)NC(=O)[C@H](CCCNC(=N)N)NC(=O)[C@@H]2CCCN2C(=O)[C@H]2CCCN2C(=O)[C@H](Cc2ccccc2)NC1=O [Peptide 26, c[Pro-Arg-Phe-Phe-Arg-Ala-Phe-DPro]] (cyclo(RFFRAF[dP]P))

fold decreased antagonist potency at the mMC3R compared to 6 ([2]; compared to 6): 6 fold
Molecule: C[C@@H]1NC(=O)[C@H](CC(N)=O)NC(=O)[C@H](Cc2cccc3ccccc23)NC(=O)[C@H](Cc2ccccc2)NC(=O)[C@H](CCCNC(=N)N)NC(=O)[C@@H]2CCCN2C(=O)[C@H]2CCCN2C(=O)[C@H](Cc2ccccc2)NC1=O [Peptide 19, c[Pro-Arg-Phe-Nal(1′)-Asn-Ala-Phe-DPro]]

fold increased antagonist potency at the mMC4R compared to 6 [1]: 4 fold
Molecule: C[C@@H]1NC(=O)[C@H](CCCCN)NC(=O)[C@H](Cc2ccccc2)NC(=O)[C@H](Cc2ccccc2)NC(=O)[C@H](CCCNC(=N)N)NC(=O)[C@@H]2CCCN2C(=O)[C@H]2CCCN2C(=O)[C@H](Cc2ccccc2)NC1=O [Peptide 25, c[Pro-Arg-Phe-Phe-Lys-Ala-Phe-DPro]]

no activity at the mMC3R up to (concentration) [2]: > 100 µM
Molecule: C[C@@H]1NC(=O)[C@H](CC(N)=O)NC(=O)[C@H](Cc2ccc3ccccc3c2)NC(=O)[C@H](Cc2ccccc2)NC(=O)[C@H](CCCNC(=N)N)NC(=O)[C@@H]2CCCN2C(=O)[C@H]2CCCN2C(=O)[C@H](Cc2ccccc2)NC1=O [Peptide 20, c[Pro-Arg-Phe-Nal(2′)-Asn-Ala-Phe-DPro]]

Ki [11]: 1300 nM
B1: peptide 5 (peptide)
chain: cyclo(PYTRFFNAFTY[dP])
SMILES: C[C@@H]1NC(=O)[C@H](CC(N)=O)NC(=O)[C@H](Cc2ccccc2)NC(=O)[C@H](Cc2ccccc2)NC(=O)[C@H](CCCNC(=N)N)NC(=O)[C@H]([C@@H](C)O)NC(=O)[C@H](Cc2ccc(O)cc2)NC(=O)[C@@H]2CCCN2C(=O)[C@H]2CCCN2C(=O)[C@H](Cc2ccc(O)cc2)NC(=O)[C@H]([C@@H](C)O)NC(=O)[C@H](Cc2ccccc2)NC1=O

Ki [11]: 200 nM
Ki [12]: 4 nM
Molecule: cyclo(PRFFRAF[dP]) [peptide 26]

Ki [12]: 4 nM
Molecule: cyclo(PRFFGAF[dP]) [peptide 21]

Ki [11]: 100 nM
Ki [12]: 5 nM
Molecule: cyclo(PRFFKAF[dP]) [peptide 25]

Further lines, the molecule ahead of its results:

Molecule: C[C@@H]1NC(=O)[C@H](CC(N)=O)NC(=O)[C@H](Cc2ccc(-c3ccccc3)cc2)NC(=O)[C@H](Cc2ccccc2)NC(=O)[C@H](CCCNC(=N)N)NC(=O)[C@@H]2CCCN2C(=O)[C@H]2CCCN2C(=O)[C@H](Cc2ccccc2)NC1=O [Peptide 14, c[Pro-Arg-Phe-Bip-Asn-Ala-Phe-DPro]]
fold decreased antagonist potency at the mMC4R compared to 6 [1]: 8 fold
no activity at the mMC3R up to (concentration) [2]: > 100 µM
fold more potent agonist at the mMC1R compared to 6 [3]: 10 fold

Molecule: TAYCRFFNAFCYAR-NH2 (disulfide 4-11) [hAGRP(107-120)]
mMC3R antagonist pA2 [4]: 6.1
mMC4R antagonist pA2 [5]: 6.6

Molecule: hAGRP(87-132) 87-132 (from UniProt O00253)
Ki [6]: 1.3 nM
Ki [7]: 0.4 nM

Molecule: miniAGRP(87-120) 87-120 (from UniProt O00253)
Ki [6]: 7.9 nM
Ki [7]: 3.2 nM

Molecule: C[C@@H]1NC(=O)[C@H](CC(N)=O)NC(=O)[C@H](Cc2ccccc2)NC(=O)[C@@H]2Cc3ccccc3CN2C(=O)[C@H](CCCNC(=N)N)NC(=O)[C@@H]2CCCN2C(=O)[C@H]2CCCN2C(=O)[C@H](Cc2ccccc2)NC1=O [Peptide 8, c[Pro-Arg-Tic-Phe-Asn-Ala-Phe-DPro]]
no activity at the mMC4R up to (concentration) [1]: > 100 µM
no activity at the mMC3R up to (concentration) [2]: > 100 µM

Molecule: miniAGRP (87-120): engineered minimized derivative of AGRP(87-132) with 4 disulfide bonds and the C-terminal 12 residues removed (CVRLHESCLGQQVPCCDPAATCYCRFFNAFCYCR)
EC50 [8]: > 100 µM
EC50 [9]: > 100 µM

Molecule: C[C@@H]1NC(=O)[C@H](CN)NC(=O)[C@H](Cc2ccccc2)NC(=O)[C@H](Cc2ccccc2)NC(=O)[C@H](CCCNC(=N)N)NC(=O)[C@@H]2CCCN2C(=O)[C@H]2CCCN2C(=O)[C@H](Cc2ccccc2)NC1=O [Peptide 22, c[Pro-Arg-Phe-Phe-Dap-Ala-Phe-DPro]]
partial agonist activity at the mMC3R [10]: did not result in partial agonist activity

Molecule: YCRFFNAFCY (disulfide 2-9) [hAGRP (109-118)]
mMC4R antagonist pA2 [5]: 6.8
mMC4R antagonist pA2 ([5]; previously reported values): 6.8±0.2

Molecule: C[C@@H]1NC(=O)[C@H](CC(N)=O)NC(=O)[C@H](Cc2ccccc2)NC(=O)[C@H](Cc2ccc3ccccc3c2)NC(=O)[C@H](CCCNC(=N)N)NC(=O)[C@@H]2CCCN2C(=O)[C@H]2CCCN2C(=O)[C@H](Cc2ccccc2)NC1=O [Peptide 13, c [Pro-Arg-Nal(2′)-Phe-Asn-Ala-Phe-DPro]]
fold decreased antagonist potency at the mMC4R compared to 6 [1]: 5 fold

Molecule: Tyr-c[Cys-Arg-Phe-Phe-Asn-Ala-Phe-Cys]-Tyr (YCRFFNAFCY; bridge 2-9; not fully specified (bridges)) [hAGRP (109-118)]
EC50 [8]: > 100 µM
Ki [5]: 160 nM
EC50 [9]: 5.1 ± 3 µM

Molecule: C[C@@H]1NC(=O)[C@H](CC(N)=O)NC(=O)[C@H](Cc2ccccc2)NC(=O)[C@H](CCc2ccccc2)NC(=O)[C@H](CCCNC(=N)N)NC(=O)[C@@H]2CCCN2C(=O)[C@H]2CCCN2C(=O)[C@H](Cc2ccccc2)NC1=O [Peptide 10, c[Pro-Arg-hPhe-Phe-Asn-Ala-Phe-DPro]]
fold decreased antagonist potency at the mMC4R compared to 6 [1]: 5 fold

Molecule: hAGRP (87–132): C-terminal domain of human Agouti-related protein, stabilized by five disulfide bonds
EC50 [8]: > 100 µM
mMC3R antagonist pA2 [4]: 8.9
mMC3R antagonist pA2 ([4]; previously reported values): 8.9±0.2
mMC4R antagonist pA2 [5]: 9.4
mMC4R antagonist pA2 ([5]; previously reported values): 9.4±1.0
Ki [5]: 0.4 nM
EC50 [9]: > 100 µM

Molecule: C[C@@H]1NC(=O)[C@H](CC(N)=O)NC(=O)[C@@H]2Cc3ccccc3CN2C(=O)[C@H](Cc2ccccc2)NC(=O)[C@H](CCCNC(=N)N)NC(=O)[C@@H]2CCCN2C(=O)[C@H]2CCCN2C(=O)[C@H](Cc2ccccc2)NC1=O [Peptide 15, c[Pro-Arg-Phe-Tic-Asn-Ala-Phe-DPro]]
no activity at the mMC4R up to (concentration) [1]: > 100 µM
no activity at the mMC3R up to (concentration) [2]: > 100 µM

Molecule: C[C@@H]1NC(=O)[C@H](CC(N)=O)NC(=O)[C@H](Cc2ccccc2)NC(=O)[C@H](Cc2ccc(-c3ccccc3)cc2)NC(=O)[C@H](CCCNC(=N)N)NC(=O)[C@@H]2CCCN2C(=O)[C@H]2CCCN2C(=O)[C@H](Cc2ccccc2)NC1=O [Peptide 7, c[Pro-Arg-Bip-Phe-Asn-Ala-Phe-DPro]] (cyclo(R[Bip]FNAF[dP]P))
fold decreased antagonist potency at the mMC4R compared to 6 [1]: 8 fold
fold more potent agonist at the mMC1R compared to 6 [3]: 5 fold

Molecule: hAGRP(109-118)
Ki [7]: 160 nM
